# According to patent publication US6689379B1, “Transdermal therapeutic system with neutralized acrylic adhesive patch” (priority 1999, dated 2004):
# Assay: EVA copolymer film permeation (modified Franz cell), release of active substance from pressure-sensitive adhesive film
# Assay type: in vitro ADME
# Settings: neutralization degrees 0 to 100% (KOH); EVA membrane; FIGS. 4, 5 and 6
# Method: Examinations on the thermodynamics of a model of ethylene vinyl acetate (EVA) copolymer film permeation
# For three basic pharmaceutical active agents, the release behaviour from an acid polyacrylate pressure-sensitive adhesive film in dependence from the neutralization of the adhesive and from the reagent used for this purpose was examined. All tests on EVA membrane were carried out with n=3 samples.
# To this end, the active substance-containing pressure-sensitive adhesive films were stuck on an EVA film as carrier membrane, and the amount of active agent released over time through this membrane to an aqueous medium buffered to pH 5.5 and located on the opposite side was quantified by appropriate HPLC methods. […] Since in the embodiment examples the active substance represents the only component which is low-molecular and capable of migration, it is the tendency of exclusively this active substance to exudate from the polymer matrix of the pressure-sensitive adhesive and to migrate into the acceptor medium after passing through the EVA membrane which is recorded.
# Independently of the permeation properties of human skin for such an active substance, the release tendency of the system in respect of the active substance as measured here is the most essential impetus for transdermal therapy by means of such a system. […]
structure (smiles),measurement,value
CCN(C)C(=O)Oc1cccc([C@H](C)N(C)C)c1 [rivastigmin],dependence of the permeated active substance amount / release rate on the neutralization degree,strong dependence of the effect from the neutralization degree
